In brackets after ≈: the same amount, converted by molar mass.
How the values were obtained:
[1] = In vitro cleavage of DP-DFC to free diclofenac in rat brain homogenate; format: in vitro ADME; conditions: for Cleavage of diclofenac from its lipid conjugate: brain homogenate, 37° C., up to 6 hours
Procedure: (§1) The ability of the compounds of the invention to be cleaved to yield free diclofenac, was studied in vitro in homogenates of rat brain and liver. Two compounds were tested: the prodrug 1-Stearoyl-2-{4-[2-(2,6-dichloroanilino)-phenylacetamido]butanoyl}-sn-glycero-3-phosphocholine (DP-DFC; Z=3), and the compound 1-Stearoyl-2-{3-[2-(2,6-dichloroanilino)-phenylacetamido]propanoyl}-sn-glycero-3-phosphatidylcholine (DP-DFC; Z=2), comprising, respectively, a bridging group having a total of 4 and 3 carbon atoms.
(§2) Liver and brain were surgically removed, under pentobarbitone anesthesia, from male Sabra rats weighing 250–280 g. About 1–1.5 g samples from each tissue were homogenized in PBS pH=7.4 (Dulbecco) at a ratio of 1:9 w/v of tissue to buffer.
(§3) DP-DFC was added to each homogenate to a final concentration of 40 μg/ml. The mixtures were incubated at 37° C. in shaking for 1, 2, 3 and 6 hours, and then were placed on ice to stop the reaction.
(§4) The amounts of free diclofenac in 1 ml samples from either the brain or liver homogenates were determined by reverse phase HPLC assay. The amount of protein in each sample was assayed by the Lowry method.
(§5) The result for each time point represents the average of five repetitions using tissues from five individual animals.
(§6) In order to evaluate the effect of temperature on the reaction, a parallel set of incubations was carried out at 4° C.

[2] = In vitro cleavage of DP-DFC to free diclofenac in rat liver homogenate; format: in vitro ADME; conditions: 37° C., up to 6 hours
Procedure: as §1, §2, §3, §4, §5, §6

[3] = Octanol/saline distribution (partition coefficient Pc), shake-flask technique; conditions: for log Pc (octanol/saline distribution coefficient): 22° C., shake-flask
Procedure: In addition, the partition coefficient (Pc) values for these compounds, i.e their distribution ratios between the organic and the aqueous phases (octanol/saline), were calculated.
The distribution of the compounds between the organic and the aqueous phases was measured by the shake-flask technique. Five milliliters of octanol containing about 3 mg of the studied compound were mixed with 5 ml saline. The mixture was shaken overnight at 22° C. before the octanol and saline phases were separated. One ml from each phase was dissolved into an appropriate volume of ethanol so that the optical absorption of the obtained solution is in range of 0.1 to 1.0.
The coefficient Pc is calculated by the following ratio:
[formula] where Aoct is the optical absorption, at λmax, of the ethanol solution in which one ml of octanol phase is dissolved, V1 is the volume of this ethanol solution and l1 is the width (cm) of the cuvette used for measurement of the optical absorption.
Asal is the optical absorption, at λmax, of the ethanol solution in which the one ml of saline phase is dissolved, V2 is the volume of this ethanol solution and l2 is the width (cm) of the cuvette used for measurement of the optical absorption.

[4] = Solubility measurements of lipid derivatives in water, saline, ethanol and octanol; conditions: for solubility: 22 °C; for Solubility (mg/ml) Saline / Solubility (mg/ml) Water: 22° C.; a) gel, b) suspension obtained after filtration through 0.45 μm filter
Procedure: The solubility of several lipid derivatives of diclofenac, indomethacin, ibuprofen, naproxen and 6-methoxy-2-naphthylacetic acid was determined at room temperature (22° C.) in aqueous solutions (water and saline) and in organic solutions (ethanol and octanol). In addition, the partition coefficient (Pc) values for these compounds, i.e their distribution ratios between the organic and the aqueous phases (octanol/saline), were calculated.

| Cleavage of diclofenac from its lipid conjugate [1] | Cleavage of diclofenac from its lipid conjugate [2] | logD [3] | solubility ([4]; saline, saline or isotonic) | solubility ([4]; water) | Cleavage of prodrug to DFC on cooling to 4° C. ([1]; parallel set of incubations in homogenates at 4° C. (data not shown)) | log Pc (octanol/saline distribution coefficient) [3] | SMILES | Solubility (mg/ml) Saline [4] | Solubility (mg/ml) Water [4] |
| --- | --- | --- | --- | --- | --- | --- | --- | --- | --- |
| not | not | 2.8 ± 0.1 | 2 µg/mL (≈ 2.29 µM) | 3 µg/mL (≈ 3.44 µM) |  |  | CCCCCCCCCCCCCCCCCC(=O)OC[C@H](COP(=O)([O-])OCC[N+](C)(C)C)OC(=O)CCNC(=O)Cc1ccccc1Nc1c(Cl)cccc1Cl [DCF n=2, 1-Stearoyl-2-{3-[2-(2,6-dichloroanilino)phenylacetamido]propanoyl}-sn-glycero-3-phosphocholine] |  |  |
| significant cleavage | significant cleavage |  | 2 µg/mL (≈ 2.25 µM) | 2 µg/mL (≈ 2.25 µM) | completely inhibited | ≧3 | CCCCCCCCCCCCCCCCCC(=O)OC[C@H](COP(=O)([O-])OCC[N+](C)(C)C)OC(=O)CCCNC(=O)Cc1ccccc1Nc1c(Cl)cccc1Cl [DCF n=3, 1-Stearoyl-2-{4-[2-(2,6-dichloroanilino)phenylacetamido]butanoyl}-sn-glycero-3-phosphocholine] |  |  |
|  |  |  | 2 µg/mL (≈ 2.22 µM) | 2 µg/mL (≈ 2.22 µM) |  | ≧3 | CCCCCCCCCCCCCCCCCC(=O)OC[C@H](COP(=O)([O-])OCC[N+](C)(C)C)OC(=O)CCCCNC(=O)Cc1ccccc1Nc1c(Cl)cccc1Cl [DCF n=4, 1-Stearoyl-2-{5-[2-(2,6-dichloroanilino)phenylacetamido]valeroyl}-sn-glycero-3-phosphocholine] |  |  |
|  |  |  | 1 µg/mL (≈ 1.06 µM) | 1 µg/mL (≈ 1.06 µM) |  | ≧3 | CCCCCCCCCCCCCCCCCC(=O)OC[C@H](COP(=O)([O-])OCC[N+](C)(C)C)OC(=O)CCCCCCCNC(=O)Cc1ccccc1Nc1c(Cl)cccc1Cl [DCF n=7, 1-Stearoyl-2-{8-[2-(2,6-dichloroanilino)phenylacetamido]octanoyl}-sn-glycero-3-phosphocholine] |  |  |
|  |  |  | < 1 µg/mL | < 1 µg/mL |  | ≧2.5 | CCCCCCCCCCCCCCCCCC(=O)OC[C@H](COP(=O)([O-])OCC[N+](C)(C)C)OC(=O)CCCCCCCCCCCNC(=O)Cc1ccccc1Nc1c(Cl)cccc1Cl [DCF n=11, 1-Stearoyl-2-{12-[2-(2,6-dichloroanilino)phenylacetamido]dodecanoyl}-sn-glycero-3-phosphocholine] |  |  |
|  |  | 1.8 | 300 µg/mL (≈ 383 µM) | 200 µg/mL (≈ 255 µM) |  |  | CCCCCCCCCCCCCCCCCC(=O)OC[C@H](COP(=O)([O-])OCC[N+](C)(C)C)OC(=O)CCNC(=O)C(C)c1ccc(CC(C)C)cc1 (stereo partly drawn) [Ibu n=2, 1-Stearoyl-2-{3-[α-methyl-4-(2-methylpropyl)benzeneacetamido]propanoyl}-sn-glycero-3-phosphocholine] |  |  |
|  |  |  | 500 µg/mL (≈ 606 µM) | 500 µg/mL (≈ 606 µM) |  | ≧3 | CCCCCCCCCCCCCCCCCC(=O)OC[C@H](COP(=O)([O-])OCC[N+](C)(C)C)OC(=O)CCCCCNC(=O)C(C)c1ccc(CC(C)C)cc1 (stereo partly drawn) [Ibu n=5, 1-Stearoyl-2-{6-[α-methyl-4-(2-methylpropyl)benzeneacetamido]hexanoyl}-sn-glycero-3-phosphocholine] |  |  |
|  |  | 2.5 | ~1500 µg/mL (≈ 1610 µM) | < 900 µg/mL |  |  | CCCCCCCCCCCCCCCCCC(=O)OC[C@H](COP(=O)([O-])OCC[N+](C)(C)C)OC(=O)CCNC(=O)Cc1c(C)n(C(=O)c2ccc(Cl)cc2)c2ccc(OC)cc12 [Indo n=2, 1-Stearoyl-2-{3-[1-(p-chlorobenzoyl)-5-methoxy-2-methyl-3-indolylacetamido]propanoyl}-sn-glycero-3-phosphocholine] |  |  |
|  |  | 2.5 | ~1500 µg/mL (≈ 1580 µM) | < 600 µg/mL |  |  | CCCCCCCCCCCCCCCCCC(=O)OC[C@H](COP(=O)([O-])OCC[N+](C)(C)C)OC(=O)CCCNC(=O)Cc1c(C)n(C(=O)c2ccc(Cl)cc2)c2ccc(OC)cc12 [Indo n=3, 1-Stearoyl-2-{4-[1-(p-chlorobenzoyl)-5-methoxy-2-methyl-3-indolylacetamido]butanoyl}-sn-glycero-3-phosphocholine] |  |  |
|  |  |  | ~100 µg/mL (≈ 104 µM) | < 10 µg/mL |  | 2.9 | CCCCCCCCCCCCCCCCCC(=O)OC[C@H](COP(=O)([O-])OCC[N+](C)(C)C)OC(=O)CCCCNC(=O)Cc1c(C)n(C(=O)c2ccc(Cl)cc2)c2ccc(OC)cc12 [Indo n=4, 1-Stearoyl-2-{5-[1-(p-chlorobenzoyl)-5-methoxy-2-methyl-3-indolylacetamido]valeroyl}-sn-glycero-3-phosphocholine] |  |  |
|  |  | 3.2 | ~10 µg/mL (≈ 10.2 µM) | < 10 µg/mL |  |  | CCCCCCCCCCCCCCCCCC(=O)OC[C@H](COP(=O)([O-])OCC[N+](C)(C)C)OC(=O)CCCCCNC(=O)Cc1c(C)n(C(=O)c2ccc(Cl)cc2)c2ccc(OC)cc12 [Indo n=5, 1-Stearoyl-2-{6-[1-(p-chlorobenzoyl)-5-methoxy-2-methyl-3-indolylacetamido]hexanoyl}-sn-glycero-3-phosphocholine] |  |  |
|  |  | 3.7 |  | ~5 µg/mL (≈ 4.98 µM) |  |  | CCCCCCCCCCCCCCCCCC(=O)OC[C@H](COP(=O)([O-])OCC[N+](C)(C)C)OC(=O)CCCCCCCNC(=O)Cc1c(C)n(C(=O)c2ccc(Cl)cc2)c2ccc(OC)cc12 [Indo n=7, 1-Stearoyl-2-{8-[1-(p-chlorobenzoyl)-5-methoxy-2-methyl-3-indolylacetamido]octanoyl}-sn-glycero-3-phosphocholine] |  |  |

| SMILES | Cleavage of diclofenac from its lipid conjugate [1] | Cleavage of diclofenac from its lipid conjugate [2] | logD [3] | solubility ([4]; saline, saline or isotonic) | solubility ([4]; water) | Cleavage of prodrug to DFC on cooling to 4° C. ([1]; parallel set of incubations in homogenates at 4° C. (data not shown)) | log Pc (octanol/saline distribution coefficient) [3] | Solubility (mg/ml) Saline [4] | Solubility (mg/ml) Water [4] |
| --- | --- | --- | --- | --- | --- | --- | --- | --- | --- |
| CCCCCCCCCCCCCCCCCC(=O)OC[C@H](COP(=O)([O-])OCC[N+](C)(C)C)OC(=O)CCNC(=O)[C@@H](C)c1ccc2cc(OC)ccc2c1 [Nap n=2, 1-Stearoyl-2-{3-[(S)-6-methoxy-α-methyl-2-naphtaleneacetamido]propanoyl}-sn-glycero-3-phosphocholine] |  |  |  |  |  |  | ≧3 | 0.06^a) mg/ml | 0.01^a) mg/ml |
| CCCCCCCCCCCCCCCCCC(=O)OC[C@H](COP(=O)([O-])OCC[N+](C)(C)C)OC(=O)CCCNC(=O)[C@@H](C)c1ccc2cc(OC)ccc2c1 [Nap n=3, 1-Stearoyl-2-{4-[(S)-6-methoxy-α-methyl-2-naphtaleneacetamido]butanoyl}-sn-glycero-3-phosphocholine] |  |  |  |  |  |  | ≧3 | 0.09^a) mg/ml | 0.12^a) mg/ml |
| CCCCCCCCCCCCCCCCCC(=O)OC[C@H](COP(=O)([O-])OCC[N+](C)(C)C)OC(=O)CCCCCNC(=O)[C@@H](C)c1ccc2cc(OC)ccc2c1 [Nap n=5, 1-Stearoyl-2-{6-[(S)-6-methoxy-α-methyl-2-naphtaleneacetamido]hexanoyl}-sn-glycero-3-phosphocholine] |  |  |  |  |  |  | ≧3 | 0.2^a) mg/ml | 0.2^a) mg/ml |
